From PMC8634379, “From the Design to the In Vivo Evaluation of Benzohomoadamantane-Derived Soluble Epoxide Hydrolase Inhibitors for the Treatment of Acute Pancreatitis” (Journal of Medicinal Chemistry, 2021)
≈ marks a conversion by molar mass, not a printed value.

What was measured:
human LOX-5 (hLOX-5) = molecular target: T1, human LOX-5 (hLOX-5) (Homo sapiens, UniProt P09917); test: Inhibition of hLOX-5; assay type: biochemical
T1 construct: purchased Cayman Chemical
T1 sequence (P09917 1-674): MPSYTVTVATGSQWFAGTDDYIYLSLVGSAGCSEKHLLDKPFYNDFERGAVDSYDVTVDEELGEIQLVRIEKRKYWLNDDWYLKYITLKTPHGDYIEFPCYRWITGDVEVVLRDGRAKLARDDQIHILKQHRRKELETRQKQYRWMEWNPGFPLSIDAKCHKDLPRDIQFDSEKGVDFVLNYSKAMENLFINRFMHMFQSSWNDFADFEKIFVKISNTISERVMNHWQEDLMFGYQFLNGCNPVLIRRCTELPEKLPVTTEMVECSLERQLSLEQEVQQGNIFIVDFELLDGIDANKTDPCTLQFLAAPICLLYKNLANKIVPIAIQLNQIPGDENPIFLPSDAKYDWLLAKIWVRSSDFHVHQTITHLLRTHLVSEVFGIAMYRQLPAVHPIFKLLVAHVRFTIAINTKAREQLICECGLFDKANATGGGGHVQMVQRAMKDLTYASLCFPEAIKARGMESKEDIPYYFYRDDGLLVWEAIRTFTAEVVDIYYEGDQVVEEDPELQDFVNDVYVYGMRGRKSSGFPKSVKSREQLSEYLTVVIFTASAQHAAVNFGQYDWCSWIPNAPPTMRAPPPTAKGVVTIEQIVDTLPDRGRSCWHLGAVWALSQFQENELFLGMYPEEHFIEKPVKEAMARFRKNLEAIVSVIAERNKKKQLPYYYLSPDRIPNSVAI
Protocol: AA and 2′,7′-dichlorodihydrofluorescein diacetate (H2DCFDA) were obtained from Sigma. Human recombinant LOX-5 was purchased from Cayman Chemical. For the determination of hLOX-5 activity, the method described by Pufahl et al. was followed.[51] The assay solution consisted of 50 mM Tris (pH 7.5), 2 mM EDTA, 2 mM CaCl2, 3 μM AA, 10 μM ATP, 10 μM H2DCFDA, and 100 mU/well hLOX-5. For the enzyme inhibition studies, the compounds to be tested were added to the assay solution prior to AA and ATP and were preincubated for a period of 10 min at room temperature, after which AA and ATP were added. The enzymatic reaction was carried out for 20 min and terminated by the addition of 40 μL of acetonitrile.

SH-SY5Y cells = test: Cytotoxicity by propidium iodide staining; assay type: cell-based; details: 100 μM, 24 h
Protocol: Cytotoxicity was evaluated in the human neuroblastoma SH-SY5Y cell line (ATCC number: CRL-2266). Cells were cultured in minimum essential medium/Ham’s-F12 (1:1, v/v) medium, supplemented with non-essential amino acids, 10% fetal bovine serum, 1 mM glutamine, and 50 μg/mL gentamycin (all reagents from Gibco, Invitrogen). For experiments, the cells were seeded at 3 × 10^5 cells/mL (100 μL/well) in 96-well plates (Nunc). After 24 h, the testing compounds were added concentrated to triplicate wells to obtain the final different concentrations up to 100 μM. Compounds were incubated for further 24 h. At termination, cytotoxicity was analyzed by the propidium iodide (PI) fluorescence stain assay. All compounds were tested in three independent experiments using different cell passages. The PI assay measures cell death. […]. The percentage of cell death induced by the treatments was calculated from the fluorescence of treated cells (Ft) relative to that of control cells (Fmin) and cells incubated with Triton X100 (Fmax) as the 0 and 100% cell death, respectively [% = ((Ft – Fmin)/(Fmax – Fmin)) × 100].

Caco-2 cell permeability = assay type: in vitro ADME; details: human; for Papp A→B at 2 h, 10 µM / Papp B→A at 2 h, 10 µM: 37 °C; for efflux ratio at 2 h, 10 µM: ER = (Papp B→A)/(Papp A→B)
Protocol: The Caco-2 cells were cultured to confluency, trypsinized, and seeded onto a 96-filter transwell insert (Corning) at a density of ∼10,000 cells/well in DMEM cell culture medium supplemented with 10% fetal bovine serum, 2 mM L-glutamine, and 1% penicillin/streptomycin. Confluent Caco-2 cells were subcultured at passages 58–62 and grown in a humidified atmosphere of 5% CO2 at 37 °C. […] The cell monolayers were used for transport studies 21 days post seeding. […] Stock solutions were made in dimethyl sulfoxide (DMSO) and further diluted in HBSS (final DMSO concentration 1%). Each compound and reference compounds (Colchicine, E3S) were all tested at a final concentration of 10 μM. For A → B directional transport, the donor working solution was added to the apical (A) compartment and the transport media as receiver working solution was added to the basolateral (B) compartment. For B → A directional transport, the donor working was added to the basolateral (B) compartment and transport media as receiver working solution was added to the apical (A) compartment. The cells were incubated at 37 °C for 2 h with gentle stirring.
At the end of the incubation, samples were taken from both donor and receiver compartments and transferred into 384-well plates and analyzed by ultraperformance liquid chromatography–tandem mass spectrometry (UPLC–MS/MS). The detection was performed using an ACQUITY UPLC/Xevo TQD System.

[1] = Solubility in 1% DMSO: 99% PBS (nephelometry); assay type: physicochemical; details: PBS with 1% DMSO, 1% DMSO: 99% PBS buffer solution, 37 °C
Protocol: A 10 mM stock solution of the compound was serially diluted in 100% DMSO and 1 μL of this solution was added to a 384-well UV-transparent plate (Greiner) containing 99 μL of PBS. The plate was incubated at 37 °C for 2 h and the light scattering was measured in a Nephelostar Plus reader (BMG LABTECH). The data were fitted to a segmented linear regression for measuring the compound solubility.

Microsomal stability [2] = details: after 60 min incubation, NADP, 37 °C
Protocol: (§1) The human, rat, and mice recombinant microsomes employed were purchased from Tebu–Xenotech. […] Samples (75 μL) were taken from each well at 0, 10, 20, 40, and 60 min and transferred to a plate containing 4 °C 75 μL of acetonitrile and 30 μL of 0.5% formic acid in water were added for improving the chromatographic conditions. The plate was centrifuged ([…], 30 min) and supernatants were taken and analyzed by an ultraperformance liquid chromatograph–tandem mass spectrometer (Xevo-TQD, Waters) by employing a BEH C18 column and an isocratic gradient of 0.1% formic acid in water: 0.1% formic acid acetonitrile (60:40). The metabolic stability of the compounds was calculated from the logarithm of the remaining compounds at each of the time points studied.

Microsomal stability [3] = assay type: in vitro ADME, human; details: after 60 min incubation, NADP, 37 °C
Protocol: as §1

Microsomal stability [4] = assay type: in vitro ADME, mice; details: after 60 min incubation, NADP, 37 °C
Protocol: as §1

Row | SMILES | IC50 (human LOX-5 (hLOX-5)) [µM] | inhibition of hLOX-5 (selectivity) (human LOX-5 (hLOX-5)) | cytotoxicity at the highest concentration tested (SH-SY5Y cells) | Papp A→B at 2 h, 10 µM (Caco-2 cell permeability) [×10⁻⁶ cm/s] | Papp B→A at 2 h, 10 µM (Caco-2 cell permeability) [×10⁻⁶ cm/s] | efflux ratio at 2 h, 10 µM (Caco-2 cell permeability) | solubility at 2 h [1] [µM] | microsomal stability, percentage of remaining compound (rat) (Microsomal stability [2]) [%] | microsomal stability, percentage of remaining compound (human) (Microsomal stability [3]) [%] | microsomal stability, percentage of remaining compound (mice) (Microsomal stability [4]) [%]
1 | CC12CC3CC(NC(=O)N[C@H]4CC[C@H](Oc5ccc(C(=O)O)cc5)CC4)(CC(C1)c1ccccc13)C2 [Compound 20, 4-[((1r,4r)-4-(3-(9-Methyl-5,6,8,9,10,11-Hexahydro-7H-5,9:7,11-dimethanobenzo[9]annulen-7-yl)ureido)cyclohexyl)oxy]benzoic Acid] | > 100 | Neither 20 nor the halogenated analogues 22 and 23 significantly inhibited | None of the compounds showed to be cytotoxic | 1 | 12.4 | 12.4 | 4 (≈ 1.95 µg/mL) | 2 | 70 | 10
2 | O=C(NC12CC3CC(Cl)(CC(C1)c1ccccc13)C2)N[C@H]1CC[C@H](Oc2ccc(C(=O)O)cc2)CC1 [Compound 22, 4-[((1r,4r)-4-(3-(9-Chloro-5,6,8,9,10,11-hexahydro-7H-5,9:7,11-dimethanobenzo[9]annulen-7-yl)ureido)cyclohexyl)oxy]benzoic Acid] | > 100 | – | None of the compounds showed to be cytotoxic | 2.15 | 4.66 | – | 13 (≈ 6.62 µg/mL) | 52 | 89 | 29
3 | O=C(NC12CC3CC(F)(CC(C1)c1ccccc13)C2)N[C@H]1CC[C@H](Oc2ccc(C(=O)O)cc2)CC1 [Compound 23, 4-[((1r,4r)-4-(3-(9-Fluoro-5,6,8,9,10,11-hexahydro-7H-5,9:7,11-dimethanobenzo[9]annulen-7-yl)ureido)cyclohexyl)oxy]benzoic Acid] | > 100 | Neither 20 nor the halogenated analogues 22 and 23 significantly inhibited | None of the compounds showed to be cytotoxic | 0.09 | 21.9 | 244 | 7 (≈ 3.45 µg/mL) | 60 | 77 | 36
